Test results taken from ChEMBL document CHEMBL5653627 (J Neurochem, 2017).
Activity calls are given as the source filed them. No cut-off for these calls is given here.

How the values were obtained:
[1] = test system: Mus musculus; test: In vivo inhibition of Angiopoietin-1 stimulated TIE2 autophosphorylation in lungs of CB17/scid mouse at 25 to 100 mg/kg,po for 3 hrs with angiopoietin-1 stimulation during last 15 mins treatment by immunoblot analysis; format: functional, organism-based; conditions: Lung, dose 25-100 mg/kg
[2] = test system: GL261; test: Cytotoxicity against mouse GL261 cells assessed as reduction in metabolic activity at 0.001 to 100 uM incubated for 72 hrs by MTT assay; format: functional, cell-based; conditions: dose 0.001-100 µM
[3] = test system: SMA-497; test: Antitumor activity against mouse SMA-497 cells xenografted in VM/Dk mouse assessed as decrease in number of CD31-positive intra-tumoral vessels in tumor at 100 mg/kg,po daily with 12 Gy irradition after 2days of treatment initiation by immunohistochemistry analysis; format: functional, organism-based
[4] = test system: SMA-560; test: Cytotoxicity against mouse SMA-560 cells assessed as reduction in metabolic activity at 0.001 to 100 uM incubated for 72 hrs by MTT assay; format: functional, cell-based; conditions: dose 0.001-100 µM
[5] = test system: SMA-497; test: Antitumor activity against mouse SMA-497 cells xenografted in VM/Dk mouse assessed as increase in number of tumor-infiltrating CD11b positive monocytes/microglia in tumor at 100 mg/kg,po daily with 12 Gy irradition after 2days of treatment initiation by immunohistochemistry analysis; format: functional, organism-based
[6] = test system: SMA-560; test: Induction of apoptosis in mouse SMA-560 cells assessed as early apoptotic cells at 0.1 uM incubated for 72 hrs by Annexin V-FITC/PI staining based flow cytometric analysis (reference value: 0.0056%); format: functional
[7] = test system: SMA-497; test: Induction of cell cycle arrest in mouse SMA-497 cells assessed as accumulation at G0/G1 phase at 0.1 uM incubated for 72 hrs by propidium iodide/RNase staining based flow cytomtery (Rvb= 76%); format: functional
[8] = test system: SMA-560; test: Antitumor activity against mouse SMA-560 cells xenografted in VM/Dk mouse assessed as decrease in number of CD31-positive intra-tumoral vessels in tumor at 100 mg/kg,po daily with 12 Gy irradition after 2days of treatment initiation by immunohistochemistry analysis; format: functional, organism-based
[9] = Toxicity in VM/Dk mouse xenografted with mouse SMA-540 cells assessed as survival rate at 100 mg/kg,po daily (Rvb=>60%); format: organism-based; conditions: in vivo
[10] = test system: SMA-497; test: Antitumor activity against mouse SMA-497 cells xenografted in VM/Dk mouse assessed as decrease in tumor volume at 100 mg/kg,po daily with 12 Gy irradition after 2days of treatment initiation by H and E staining based microscopy; format: functional, organism-based
[11] = test system: SMA-540; test: Antitumor activity against mouse SMA-540 cells xenografted in VM/Dk mouse assessed as decrease in tumor volume at 100 mg/kg,po daily by H and E staining based microscopy; format: functional, organism-based
[12] = test system: SMA-560; test: Antitumor activity against mouse SMA-560 cells xenografted in VM/Dk mouse assessed as decrease in tumor volume at 100 mg/kg,po daily by H and E staining based microscopy; format: functional, organism-based
[13] = test system: SMA-560; test: Anti-clonogenicic activity in mouse SMA-560 cells assessed as reduction in colony formation at 0.1 to 1 uM preincubated for 6 hrs followed by 1 to 9 Gy irradiation with and measured after 10 days by MTT based clonogenic survival assay; format: functional, cell-based; conditions: dose 0.1-1 µM, time 246.0 hrs
[14] = test system: SMA-560; test: Anti-clonogenicic activity in mouse SMA-560 cells assessed as reduction in colony formation at 0.1 to 1 uM preincubated for 6 hrs followed by temozolomide addition and measured after 10 days by MTT based clonogenic survival assay; format: functional, cell-based; conditions: dose 0.1-1 µM, time 246.0 hrs
[15] = test system: SMA-497; test: Anti-clonogenicic activity in mouse SMA-497 cells assessed as reduction in colony formation at 0.1 to 1 uM preincubated for 6 hrs followed by 1 to 9 Gy irradiation with and measured after 10 days by MTT based clonogenic survival assay; format: functional, cell-based; conditions: dose 0.1-1 µM, time 246.0 hrs

With `Cc1cc(C)c(-n2ccn3nc(-c4cccnc4)cc23)cc1NC(=O)c1cc(C#N)cc(S(F)(F)(F)(F)F)c1` [BAY-826] the inhibition [1] was “Active”, the Activity [2] was “inactive” and the Activity [3] was “Active”. The Activity [4] was “inactive”, the Activity [5] was “Active” and the Activity [6] was 0%. For the same molecule, the Activity [7] was 66%, the Activity [8] was “Active” and the Survival [9] was > 60%. The Activity [10] was “inactive”, the Activity [11] was “inactive” and the Activity [12] was “inactive”. The Activity [13] was “inactive”, the Activity [14] was “inactive” and the Activity [15] was “inactive”.
